Data set [1] can be described thus: Cell viability (MTT colourimetric assay) in the IDO1 cell-based assay. The following applies: mouse, same experiment as cellular IDO1 assay, read-out: Cell cytotoxicity IC50. On the procedure: The viability of the cells in each well in the same experiment was determined using the 3-(4,5-dimethylthiazolyl-2-yl)-2,5-diphenyltetrazolium bromide ([…]) colourimetric assay. After the removal of the supernatant for determination of IDO1 inhibition, the cells were incubated with MU (500 μg/mL) until crystal formation was observed. Plates were centrifuged for 15 min at 2500 g, and then all the supernatant in then wells was discarded. DMSO (100 μL/well) was added to dissolve the crystals and then the absorbance in each well was measured at 570 nm. Cell viability in each well was expressed as a percentage of untreated controls. Triplicate cultures were used for all experiments unless stated otherwise.
For orientation: Formazan colour is commonly taken as a measure of viable cells.

Data set [2] can be described thus: Cell viability (MTT colourimetric assay) in the TDO cell-based assay. The following applies: mouse, same experiment as cellular TDO assay, read-out: Cell cytotoxicity IC50. The method, then:
The viability of the cells in each well in the same experiment was determined using the 3-(4,5-dimethylthiazolyl-2-yl)-2,5-diphenyltetrazolium bromide ([…]) colourimetric assay.

For data set [3], the target named is Recombinant human IDO1 (rhIDO1) (Homo sapiens (Human), UniProt P14902). Briefly: Enzymatic assay for IDO1 activity. It counts as biochemical. The following applies: rhIDO1 9 nM, 80 μM TRP, 37° C. 30 min. On the procedure:
Recombinant human IDO1 (rhIDO1) was expressed and purified from cultures of EC538 strain of E. coli transformed with pREP4 and pQE9-IDO plasmid. Reaction mixes were set up in 384-well microplates containing 50 mM phosphate buffer, 10 mM ascorbic, 10 μM methylene blue, 100 μg/mL catalase, 80 μM TRP, 0.01% Tween 20 (v/v) mixed with rhIDO1 (15 μL) at a final concentration of 9 nM in a total volume of 30 μL assay medium. The plates were incubated at 37° C. for 30 min, and the enzymatic reaction was terminated by adding piperidine (200 mM) and heated at 65° C. for 20 min. Fluorescence intensity was read at λex 400 nm and λem 500 nm. Test compounds were dissolved in 100% DMSO and pre-diluted in assay medium prior to adding rhIDO1. IDO1 inhibition (%) was calculated as
[formula] All experiments were carried out in triplicates, and statistical Analyses were conducted in Prism v5 (Graphpad Software, Inc., La Jolla, Calif., USA). Cell-Based Assay for IDO1 Inhibition

In data set [4] the target is full length human TDO (GL261 cells) (Homo sapiens (Human), UniProt P48775). Kind of data set: Cell-based assay for TDO inhibition. The following applies: GL261 cells over-expressing human TDO, 24 h; read-out: Cellular IC50. The method, then:
Culture supernatant from each well was then transferred into a fresh, flat-bottomed 96-well plate, and kynurenine content was determined as described above for the IDO1 assay, and the concentration that inhibited 50% cellular enzyme activity was calculated.

19 molecules from patent US11414428B2, “Inhibitors of tryptophan dioxygenases (IDO1 and TDO) and their use in therapy” (Auckland UniServices Limited, priority 2015, dated 2022) can be followed below.

Recombinant human IDO1 (rhIDO1), sequence (P14902 whole entry): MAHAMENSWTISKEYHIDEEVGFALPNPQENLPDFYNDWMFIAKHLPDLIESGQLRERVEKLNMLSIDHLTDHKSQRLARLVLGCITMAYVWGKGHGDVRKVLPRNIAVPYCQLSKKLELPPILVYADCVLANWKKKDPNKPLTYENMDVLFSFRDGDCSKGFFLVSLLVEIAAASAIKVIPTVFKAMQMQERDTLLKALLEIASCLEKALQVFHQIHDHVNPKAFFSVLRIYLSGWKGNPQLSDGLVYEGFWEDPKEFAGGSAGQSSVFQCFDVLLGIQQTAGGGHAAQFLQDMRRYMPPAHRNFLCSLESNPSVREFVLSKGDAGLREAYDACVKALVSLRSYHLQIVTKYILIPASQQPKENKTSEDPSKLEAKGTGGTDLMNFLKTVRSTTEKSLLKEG
full length human TDO (GL261 cells), sequence (P48775 whole entry): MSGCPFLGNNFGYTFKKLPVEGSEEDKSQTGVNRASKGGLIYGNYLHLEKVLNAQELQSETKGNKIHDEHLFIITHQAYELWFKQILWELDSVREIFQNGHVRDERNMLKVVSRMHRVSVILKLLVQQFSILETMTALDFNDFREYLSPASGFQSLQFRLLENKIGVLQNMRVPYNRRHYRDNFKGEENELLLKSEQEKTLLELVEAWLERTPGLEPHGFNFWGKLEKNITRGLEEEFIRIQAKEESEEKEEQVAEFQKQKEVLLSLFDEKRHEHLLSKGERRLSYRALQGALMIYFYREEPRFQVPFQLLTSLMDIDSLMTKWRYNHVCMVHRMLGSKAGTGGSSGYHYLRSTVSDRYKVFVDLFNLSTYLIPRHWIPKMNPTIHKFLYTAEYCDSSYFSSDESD

Consider `Cc1nc2onc(N)c2c(C)c1Cl` [Compound 1, 5-Chloro-4,6-dimethylisoxazolo[5,4-b]pyridin-3-amine], for which the IC50 in data set [1] and in data set [2] was above 100 µM throughout.
On to `Cc1nc2onc(NC(=O)Nc3ccc(OC(F)(F)F)cc3)c2c(C)c1Cl` [Compound 2, 1-(5-Chloro-4,6-dimethylisoxazolo[5,4-b]pyridin-3-yl)-3-(4-(trifluoromethoxy)phenyl)urea], for which the half-inhibitory concentration (IC50) in data set [3] and in data set [1] was above 100 µM in each case.
Consider `Cc1nc2onc(NC(=O)Nc3ccc(C#N)cc3)c2c(C)c1Cl` [Compound 3, 1-(5-chloro-4,6-dimethylisoxazolo[5,4-b]pyridin-3-yl)-3-(4-cyanophenyl)urea], for which the IC50 (usually the concentration that inhibits the measured activity by half) is 10 to 100 µM in data set [3] and above 100 µM in data set [1].
`Cc1nc2onc(NC(=O)Oc3ccccc3)c2c(C)c1Cl` [Compound 4, Phenyl (5-chloro-4,6-dimethylisoxazolo[5,4-b]pyridin-3-yl)carbamate]: the IC50 was 10 to 100 µM in data set [4], 1 to 10 µM in data set [3], above 100 µM in data set [1] and above 100 µM in data set [2].
As to `Cc1nc2onc(NC(=O)Nc3ccccc3Cl)c2c(C)c1Cl` [Compound 6, 1-(5-Chloro-4,6-dimethylisoxazolo[5,4-b]pyridin-3-yl)-3-(2-chlorophenyl)urea], the IC50 in data set [3] and in data set [1] was above 100 µM in each case.
For the molecule `Cc1nc2onc(NC(=O)Nc3cccc(Cl)c3)c2c(C)c1Cl` [Compound 7, 1-(5-Chloro-4,6-dimethylisoxazolo[5,4-b]pyridin-3-yl)-3-(3-chlorophenyl)urea], the half-maximal inhibitory concentration (IC50) in data set [3] and in data set [1] was above 100 µM each time.
For the molecule `Cc1nc2onc(NC(=O)Nc3ccc(Cl)cc3)c2c(C)c1Cl` [Compound 8, 1-(5-Chloro-4,6-dimethylisoxazolo[5,4-b]pyridin-3-yl)-3-(4-chlorophenyl)urea], the concentration for half-maximal inhibition (IC50) in data set [3] and in data set [1] was above 100 µM each time.
`Cc1nc2onc(NC(=O)Nc3ccccc3OC(F)(F)F)c2c(C)c1Cl` [Compound 9, 1-(5-Chloro-4,6-dimethylisoxazolo[5,4-b]pyridin-3-yl)-3-(2-(trifluoromethoxy)phenyl)urea]: the IC50 in data set [3] and in data set [1] was above 100 µM throughout.
Consider `Cc1nc2onc(NC(=O)Nc3cccc(OC(F)(F)F)c3)c2c(C)c1Cl` [Compound 10, 1-(5-Chloro-4,6-dimethylisoxazolo[5,4-b]pyridin-3-yl)-3-(3-(trifluoromethoxy)phenyl)urea], for which the half-inhibitory concentration (IC50) in data set [3] and in data set [1] was above 100 µM throughout.
As to `COc1ccccc1NC(=O)Nc1noc2nc(C)c(Cl)c(C)c12` [Compound 11, 1-(5-Chloro-4,6-dimethylisoxazolo[5,4-b]pyridin-3-yl)-3-(2-methoxyphenyl)urea], the IC50 is 10 to 100 µM in data set [3] and above 100 µM in data set [1].
Take `COc1cccc(NC(=O)Nc2noc3nc(C)c(Cl)c(C)c23)c1` [Compound 12, 1-(5-Chloro-4,6-dimethylisoxazolo[5,4-b]pyridin-3-yl)-3-(3-methoxyphenyl)urea]: the IC50 in data set [3] and in data set [1] was above 100 µM each time.
As for `COc1ccc(NC(=O)Nc2noc3nc(C)c(Cl)c(C)c23)cc1` [Compound 13, 1-(5-Chloro-4,6-dimethylisoxazolo[5,4-b]pyridin-3-yl)-3-(4-methoxyphenyl)urea], the IC50 in data set [3] and in data set [1] was above 100 µM each time.
For `Cc1nc2onc(NC(=O)Nc3ccccc3C(F)(F)F)c2c(C)c1Cl` [Compound 14, 1-(5-Chloro-4,6-dimethylisoxazolo[5,4-b]pyridin-3-yl)-3-(2-(trifluoromethyl)phenyl)urea], the 50% inhibitory concentration (IC50) in data set [3] and in data set [1] was above 100 µM throughout.
Take `Cc1nc2onc(NC(=O)Nc3cccc(C(F)(F)F)c3)c2c(C)c1Cl` [Compound 15, 1-(5-Chloro-4,6-dimethylisoxazolo[5,4-b]pyridin-3-yl)-3-(3-(trifluoromethyl)phenyl)urea]: the half-maximal inhibitory concentration (IC50) is 10 to 100 µM in data set [4], above 100 µM in data set [3], above 100 µM in data set [1] and above 100 µM in data set [2].
Regarding `Cc1nc2onc(NC(=O)Nc3ccc(C(F)(F)F)cc3)c2c(C)c1Cl` [Compound 16, 1-(5-Chloro-4,6-dimethylisoxazolo[5,4-b]pyridin-3-yl)-3-(4-(trifluoromethyl)phenyl)urea], the IC50 in data set [3] and in data set [1] was above 100 µM each time.
Turning to `Cc1nc2onc(NC(=O)Nc3ccccc3)c2c(C)c1Cl` [Compound 17, 1-(5-Chloro-4,6-dimethylisoxazolo[5,4-b]pyridin-3-yl)-3-phenylurea], the values for the IC50 in data set [3] and in data set [1] were 10 to 100 µM and above 100 µM, respectively.
`Cc1nc2onc(NC(=O)Cc3ccccc3)c2c(C)c1Cl` [Compound 18, N-(5-Chloro-4,6-dimethylisoxazolo[5,4-b]pyridin-3-yl)-2-phenylacetamide]: the half-inhibitory concentration (IC50) in data set [3] was above 100 µM.
As for `Cc1nc2onc(NC(=O)Cc3ccc(OC(F)(F)F)cc3)c2c(C)c1Cl` [Compound 19, N-(5-Chloro-4,6-dimethylisoxazolo[5,4-b]pyridin-3-yl)-2-(4-(trifluoromethoxy)phenyl)acetamide], the IC50 in data set [3] and in data set [1] was above 100 µM throughout.
Consider `CC(=O)Nc1noc2nc(C)c(Cl)c(C)c12` [Compound 20, N-(5-Chloro-4,6-dimethylisoxazolo[5,4-b]pyridin-3-yl)acetamide], for which the IC50 in data set [3] and in data set [1] was above 100 µM throughout.
